Measured values taken from PMC4332533 (Neuropharmacology, 2014).
Several values for one entry are separate records, joined by “and”; a condition that tells them apart may be missing. Identical values can stand only once. Like-named read-outs stand apart in the source and are kept apart here.

Key:
α3S125Cβ2Q39C receptor [1] = biological target: T1, α3S125Cβ2Q39C receptor (Rattus norvegicus, UniProt P04757+P12390, Q65C/S152C); experiment: Disulfide cross-linking experiments; assay type: cell-based
α3Q37Cβ2A127C receptor [2] = biological target: T2, α3Q37Cβ2A127C receptor (Rattus norvegicus, UniProt P04757+P12390, A153C/Q64C); experiment: Disulfide cross-linking experiments; assay type: cell-based
α3Y168Cβ2D190C receptor [3] = biological target: T3, α3Y168Cβ2D190C receptor (Rattus norvegicus, UniProt P04757+P12390, D216C/Y195C); experiment: Disulfide cross-linking experiments; assay type: cell-based
α3E173Cβ2R46C receptor = α3E173Cβ2R46C receptor (Rattus norvegicus, UniProt P04757+P12390, E200C/R46C); experiment: Disulfide cross-linking experiments; assay type: cell-based
α3S125Cβ2 receptor [4] = biological target: T4, α3S125Cβ2 receptor (Rattus norvegicus, UniProt P04757+P12390, S152C); experiment: Disulfide cross-linking experiments; assay type: cell-based; conditions: H2O2 oxidation treatment (Supplemental Fig. S3C)
wild type α3β2 receptor [5] = biological target: T5, wild type α3β2 receptor (Rattus norvegicus, UniProt P04757+P12390); experiment: Disulfide cross-linking experiments; assay type: cell-based; conditions: 5 min 4.4 mM H2O2 alone; 300 µM ACh ± 10 µM Mor
α3S125Cβ2 receptor [6] = biological target: T4, α3S125Cβ2 receptor; experiment: Macroscopic evoked currents, two-electrode voltage-clamp, Xenopus laevis oocytes; assay type: cell-based
α3S125Cβ2Q39C receptor [7] = biological target: T1, α3S125Cβ2Q39C receptor; experiment: as above
α3E173Aβ2R46V receptor = α3E173Aβ2R46V receptor (Rattus norvegicus, UniProt P04757+P12390, E200A/R46V); experiment: as above; assay type: cell-based; conditions: mutation-modulator Ɽ from EC50s vs wild type; 10 µM Mor
α3Y168Cβ2D190C receptor [8] = biological target: T3, α3Y168Cβ2D190C receptor; experiment: as above; assay type: cell-based
α3β2R46V receptor = α3β2R46V receptor (Rattus norvegicus, UniProt P04757+P12390, R72V); experiment: as above; assay type: cell-based; conditions: Mor alone; relative to saturating ACh; no Hill fit possible
α3β2A127Y receptor = α3β2A127Y receptor (Rattus norvegicus, UniProt P04757+P12390, A153Y); experiment: as above; assay type: cell-based
α3Y168Fβ2 receptor = α3Y168Fβ2 receptor (Rattus norvegicus, UniProt P04757+P12390, Y195F); experiment: as above; assay type: cell-based
α3β2D190C receptor = α3β2D190C receptor (Rattus norvegicus, UniProt P04757+P12390, D216C); experiment: as above; assay type: cell-based; conditions: for potentiation of ACh-evoked currents: 10 µM modulator (Fig. 3B)
α3Y168Fβ2D190Q receptor = α3Y168Fβ2D190Q receptor (Rattus norvegicus, UniProt P04757+P12390, D216Q/Y195F); experiment: as above; assay type: cell-based; conditions: mutation-modulator Ɽ from EC50s vs wild type
α3Q37Cβ2A127C receptor [9] = biological target: T2, α3Q37Cβ2A127C receptor; experiment: as above; assay type: cell-based; conditions: mutation-modulator Ɽ from EC50s vs wild type; 10 µM Mor
wild type α3β2 receptor [10] = biological target: T5, wild type α3β2 receptor; conditions: Mor alone, cited from earlier work
α3β2Q39C receptor = α3β2Q39C receptor (Rattus norvegicus, UniProt P04757+P12390, Q65C); experiment: Macroscopic evoked currents, two-electrode voltage-clamp, Xenopus laevis oocytes; assay type: cell-based; conditions: mutation-modulator Ɽ from EC50s vs wild type; 10 µM Mor
α3S125Yβ2W149A receptor = α3S125Yβ2W149A receptor (Rattus norvegicus, UniProt P04757+P12390, S152Y/W175A); experiment: as above; assay type: cell-based
α3E173Aβ2 receptor = α3E173Aβ2 receptor (Rattus norvegicus, UniProt P04757+P12390, E200A); experiment: as above; assay type: cell-based
α3β2A127C receptor = α3β2A127C receptor (Rattus norvegicus, UniProt P04757+P12390, A153C); experiment: as above; assay type: cell-based; conditions: mutation-modulator Ɽ from EC50s vs wild type; 10 µM Mor
α3S125Yβ2A127Y receptor = α3S125Yβ2A127Y receptor (Rattus norvegicus, UniProt P04757+P12390, A153Y/S152Y); experiment: as above; assay type: cell-based
wild type α3β2 receptor [11] = biological target: T5, wild type α3β2 receptor; experiment: as above; assay type: cell-based; conditions: 10 µM Mor; 300 µM ACh; control measurement before oxidation (Fig. 2)
α3Q37Cβ2 receptor = α3Q37Cβ2 receptor (Rattus norvegicus, UniProt P04757+P12390, Q64C); experiment: as above; assay type: cell-based; conditions: mutation-modulator Ɽ from EC50s vs wild type; 10 µM Mor
α3β2D190Q receptor = α3β2D190Q receptor (Rattus norvegicus, UniProt P04757+P12390, D216Q); experiment: as above; assay type: cell-based; conditions: mutation-modulator Ɽ from EC50s vs wild type
α3S125Yβ2 receptor = α3S125Yβ2 receptor (Rattus norvegicus, UniProt P04757+P12390, S152Y); experiment: as above
α3β2W149A receptor = conditions: Mor alone; relative to saturating ACh; no Hill fit possible; cited from earlier work
α3Y168Cβ2 receptor = α3Y168Cβ2 receptor (Rattus norvegicus, UniProt P04757+P12390, Y195C); experiment: Macroscopic evoked currents, two-electrode voltage-clamp, Xenopus laevis oocytes; assay type: cell-based; conditions: mutation-modulator Ɽ from EC50s vs wild type; 10 µM Oxa
[12] = Mor alone, relative to saturating ACh
[13] = mutation-modulator Ɽ from EC50s vs wild type, 10 µM Mor
[14] = 10 µM Mor, saturating nicotine, 10 µM epibatidine (Fig. 8)
[15] = mutation-modulator Ɽ from EC50s vs wild type, 10 µM Oxa

α3S125Yβ2A127Y receptor, sequence (P04757 26-499 S152Y): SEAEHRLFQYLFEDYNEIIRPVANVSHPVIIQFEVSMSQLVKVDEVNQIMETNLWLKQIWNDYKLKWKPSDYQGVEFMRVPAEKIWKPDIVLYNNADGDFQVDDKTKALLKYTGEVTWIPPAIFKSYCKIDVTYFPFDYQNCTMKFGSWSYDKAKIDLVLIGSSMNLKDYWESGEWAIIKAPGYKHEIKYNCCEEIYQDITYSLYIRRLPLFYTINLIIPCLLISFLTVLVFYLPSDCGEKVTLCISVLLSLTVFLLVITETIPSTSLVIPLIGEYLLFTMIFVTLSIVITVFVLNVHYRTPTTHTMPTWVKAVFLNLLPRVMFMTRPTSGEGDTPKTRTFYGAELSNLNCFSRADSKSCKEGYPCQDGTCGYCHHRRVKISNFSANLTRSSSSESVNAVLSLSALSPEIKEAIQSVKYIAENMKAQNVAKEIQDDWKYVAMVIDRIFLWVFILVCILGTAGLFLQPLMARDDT
α3S125Yβ2A127Y receptor, sequence (P12390 25-500 A153Y): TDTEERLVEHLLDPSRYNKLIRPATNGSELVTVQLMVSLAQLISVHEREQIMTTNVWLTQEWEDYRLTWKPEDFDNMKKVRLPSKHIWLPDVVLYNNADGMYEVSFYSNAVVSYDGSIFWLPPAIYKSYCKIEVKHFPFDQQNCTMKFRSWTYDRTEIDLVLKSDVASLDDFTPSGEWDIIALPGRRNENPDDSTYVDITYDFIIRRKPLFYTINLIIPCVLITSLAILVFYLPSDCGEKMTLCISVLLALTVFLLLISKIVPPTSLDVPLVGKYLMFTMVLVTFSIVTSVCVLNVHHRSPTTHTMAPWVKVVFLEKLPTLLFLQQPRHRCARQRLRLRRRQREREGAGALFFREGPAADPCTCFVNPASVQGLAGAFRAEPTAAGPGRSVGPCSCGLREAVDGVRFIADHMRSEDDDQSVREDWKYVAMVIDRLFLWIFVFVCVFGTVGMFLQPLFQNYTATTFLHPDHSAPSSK
α3S125Yβ2 receptor, sequence (P04757 26-499 S152Y): as the sequence (P04757 26-499 S152Y) above
α3S125Yβ2 receptor, sequence (P12390 25-500, stated change not applied): as the sequence (P12390 25-500 A153Y) above, with Y129A counted along it
α3S125Yβ2W149A receptor, sequence (P04757 26-499 S152Y): as the sequence (P04757 26-499 S152Y) above
α3S125Yβ2W149A receptor, sequence (P12390 25-500 W175A): as the sequence (P12390 25-500 A153Y) above, with Y129A, W151A counted along it
T5 sequence (P04757 26-499): as the sequence (P04757 26-499 S152Y) above, with Y127S counted along it
T5 sequence (P12390 25-500): as the sequence (P12390 25-500 A153Y) above, with Y129A counted along it
α3β2A127Y receptor, sequence (P04757 26-499): as the sequence (P04757 26-499 S152Y) above, with Y127S counted along it
α3β2A127Y receptor, sequence (P12390 25-500 A153Y): as the sequence (P12390 25-500 A153Y) above

## O[C@@H](CS)[C@@H](O)CS (racemic) [DTT, dithiothreitol]
α3S125Cβ2Q39C receptor [1]; 40–100 µM DTT after H2O2 (Fig. 6)
  reduction of the disulfide bond after oxidation: effective resistance
α3Q37Cβ2A127C receptor [2]; 40 µM DTT after oxidation (Fig. 7)
  reduction of the disulfide bond after oxidation: essentially resistant
α3Y168Cβ2D190C receptor [3]; subsequent DTT treatment (Supplemental Fig. S2B)
  reversal of oxidation-induced current decrease by reduction: completely reversed
α3E173Cβ2R46C receptor; DTT after H2O2 (Supplemental Fig. S4)
  change of currents upon reduction following oxidation: did decrease currents, but not completely to the control level

## OO [H2O2]
α3S125Cβ2Q39C receptor [1]; 4.4 mM H2O2 alone, 300 µM ACh, 300 µM ACh + 10 µM Mor, 10 µM Mor (Fig. 6)
  decrease of currents evoked by ACh, ACh + Mor and Mor alone upon oxidation: 62–89%
α3S125Cβ2Q39C receptor [1]; 5 min 4.4 mM H2O2 alone, current evoked by 300 µM ACh
  decrease of IACh upon oxidation: 60%
α3S125Cβ2Q39C receptor [1]; 5 min 4.4 mM H2O2 alone, current evoked by 300 µM ACh + 10 µM Mor
  decrease of IACh+Mor upon oxidation: 80% and 90%
α3S125Cβ2 receptor [4]
  change in evoked currents upon oxidation: no changes
α3Q37Cβ2A127C receptor [2]; 4.4 mM H2O2 alone or with 100 µM ACh + 10 µM Mor, 1 mM ACh, 10 µM Mor (Fig. 7)
  change of currents evoked by ACh alone, ACh + Mor and Mor alone upon oxidation: all increased
Wild type α3β2 receptor [5]
  effect of oxidizing treatment on evoked currents: unaffected
α3Y168Cβ2D190C receptor [3]; H2O2 treatment (abstract)
  reduction of evoked currents following oxidation: up to 50%
α3Y168Cβ2D190C receptor [3]; oxidation onset kinetics (Supplemental Fig. S2A)
  Ioxidation/Icontrol, final fraction of current remaining at long times: 0.61 ± 0.05
α3E173Cβ2R46C receptor; H2O2 alone (Supplemental Fig. S4)
  change of currents upon oxidation: significantly increased currents

## Cc1ccsc1C=CC1=NCCCN1C.O=C(O)C(O)C(O)C(=O)O [Mor, 1,4,5,6-tetrahydro-1-methyl-2-(2-[3-methyl-2-thienyl]ethenyl)pyrimidine, tartrate salt]
α3S125Cβ2 receptor [6]
  EC50: 92 ± 33 µM
α3S125Cβ2 receptor [6]; Mor alone, Hill fit
  nH (Mor Activation): 0.54 ± 0.11 [4]
α3S125Cβ2 receptor [6]; [12]
  Emax (Mor Activation): 0.028 ± 0.006
α3S125Cβ2 receptor [6]; [13]
  R(mut-Mor): 1.3
α3S125Cβ2Q39C receptor [7]
  EC50: 0.53 ± 0.21 µM
α3S125Cβ2Q39C receptor [7]; 10 µM Mor, 300 µM ACh, control measurement before oxidation (Fig. 2)
  potentiation (IACh+Mor/IACh): greater than 2.5 fold
α3S125Cβ2Q39C receptor [7]; Mor alone, Hill fit
  nH (Mor Activation): 0.92 ± 0.30 [4–8]
α3S125Cβ2Q39C receptor [7]; [12]
  Emax (Mor Activation): 1.00 ± 0.14
α3S125Cβ2Q39C receptor [7]; [13]
  R(mut-Mor): 4.5
α3E173Aβ2R46V receptor
  R(mut-Mor): 9.0
α3Y168Cβ2D190C receptor [8]; 10 µM Mor, 1 mM ACh, control measurement before oxidation (Fig. 2)
  potentiation (IACh+Mor/IACh): greater than 2.5 fold
α3Y168Cβ2D190C receptor [8]; Ɽ=EC50(WT,A)·EC50(mut,A+M)/EC50(WT,A+M)·EC50(mut,A), M = 10 µM Mor
  R(mut-Mor): 0.52
α3β2R46V receptor
  Emax (Mor Activation): 0.03 ± 0.01 [7]
α3β2A127Y receptor
  EC50: 4.8 ± 2.4 µM
α3β2A127Y receptor; 10 µM Mor alone (Fig. 8)
  response to Mor alone: nearly negligible current
α3β2A127Y receptor; 10 µM Mor, 300 µM ACh (Fig. 8)
  effect on ACh responses: modestly potentiated
α3β2A127Y receptor; [14]
  effect on responses evoked by nicotine and epibatidine: inhibited
α3β2A127Y receptor; Mor alone, Hill fit
  nH (Mor Activation): 1.08 ± 0.40
α3β2A127Y receptor; [12]
  Emax (Mor Activation): 0.05 ± 0.01 [5]
α3β2A127Y receptor; [13]
  R(mut-Mor): 9.4
α3Y168Fβ2 receptor; ACh + 10 µM Mor EC50 comparison, Table 1
  decrease in EC50 for Mor modulation vs wild type: 70 fold
α3β2D190C receptor
  potentiation of ACh-evoked currents: eliminated
α3β2D190C receptor; [13]
  R(mut-Mor): 10
α3Y168Fβ2D190Q receptor; 10 µM Mor
  R(mut-Mor): 0.57
α3Q37Cβ2A127C receptor [9]
  R(mut-Mor): 1.7
Wild type α3β2 receptor [10]; Hill fit
  nH (Mor Activation): 3.1 ± 1.6
Wild type α3β2 receptor [10]; relative to saturating ACh
  Emax (Mor Activation): 0.2 and 0.20 ± 0.04
Wild type α3β2 receptor [10]; read-out: EC50 (Mor Activation), Hill fit
  EC50: 20 ± 2 µM
α3β2Q39C receptor
  R(mut-Mor): 0.10
α3S125Yβ2W149A receptor
  EC50: 25 ± 9 µM
α3S125Yβ2W149A receptor; Mor alone, Hill fit
  nH (Mor Activation): 1.01 ± 0.29 [5–6]
α3S125Yβ2W149A receptor; [12]
  Emax (Mor Activation): 0.21 ± 0.02
α3S125Yβ2W149A receptor; [13]
  R(mut-Mor): 7.2
α3E173Aβ2 receptor; Mor alone, relative to saturating ACh, no Hill fit possible
  Emax (Mor Activation): 0.16 ± 0.01 [4]
α3E173Aβ2 receptor; [13]
  R(mut-Mor): 1.4
α3β2A127C receptor
  R(mut-Mor): 3.3
α3S125Yβ2A127Y receptor
  EC50: 1.9 ± 0.2 µM
α3S125Yβ2A127Y receptor; 10 µM Mor, 300 µM ACh (Fig. 8)
  effect on ACh responses: modestly potentiated
α3S125Yβ2A127Y receptor; [14]
  effect on responses evoked by nicotine and epibatidine: inhibited
α3S125Yβ2A127Y receptor; Mor alone, Hill fit
  nH (Mor Activation): 3.18 ± 0.63
α3S125Yβ2A127Y receptor; [12]
  Emax (Mor Activation): 0.16 ± 0.01 [3]
α3S125Yβ2A127Y receptor; [13]
  R(mut-Mor): 1.2
α3S125Yβ2A127Y receptor; thermodynamic cycle α3S125Y-β2A127Y from Mor alone EC50s
  Ω (Mor alone activation): 3.4
Wild type α3β2 receptor [11]
  potentiation (IACh+Mor/IACh): greater than 2.5 fold
α3Q37Cβ2 receptor
  R(mut-Mor): 5.3
α3β2D190Q receptor; 10 µM Mor
  R(mut-Mor): 7.1
α3S125Yβ2 receptor
  EC50: 2.3 ± 0.7 µM
α3S125Yβ2 receptor; 10 µM Mor alone (Fig. 8, Fig. 5A)
  response to Mor alone: full agonist
α3S125Yβ2 receptor; 10 µM Mor, 300 µM ACh (Fig. 8)
  effect on ACh responses: modestly potentiated
α3S125Yβ2 receptor; [14]
  effect on responses evoked by nicotine and epibatidine: inhibited
α3S125Yβ2 receptor; ACh + 10 µM Mor EC50 comparison
  decrease in EC50 for Mor modulation vs wild type: 1000 fold
α3S125Yβ2 receptor; [12]
  Emax (Mor Activation): 1.7 and 1.69 ± 0.27
α3S125Yβ2 receptor; [13]
  R(mut-Mor): 0.0076
α3β2W149A receptor
  Emax (Mor Activation): 0.015 ± 0.004 [3]

## CN1CCCN=C1/C=C/c1cccc(O)c1 [Oxa, 1-methyl-2-(3-hydroxyphenylethenyl)-1,4,5,6-tetrahydropyrimidine with 4,4’-methylenebis(3-hydroxy-2-naphthoic acid)]
α3Y168Cβ2D190C receptor [8]; [15]
  R(mut-Oxa): 1.9
α3Y168Fβ2 receptor; [15]
  R(mut-Oxa): 1.5
α3β2D190C receptor
  potentiation of ACh-evoked currents: eliminated
α3β2D190C receptor; [15]
  R(mut-Oxa): 19
α3Y168Fβ2D190Q receptor; 10 µM Oxa
  R(mut-Oxa): 1.6
α3β2D190Q receptor; 10 µM Oxa
  R(mut-Oxa): 19
α3Y168Cβ2 receptor
  R(mut-Oxa): 1.2

## Clc1ccc(C2CC3CCC2N3)cn1 (stereo not shown) [epibatidine]
α3S125Yβ2 receptor; saturating agonist (Fig. 8)
  efficacy compared with ACh: greater efficacy

## CN1CCC[C@H]1c1cccnc1 [nicotine]
α3S125Yβ2 receptor
  efficacy compared with ACh: greater efficacy
